Biological target: T1, human γD-crystallin protein (Homo sapiens, UniProt P07320)
T1 construct: 6xHis (N); made in house; host or cells: E. coli (M15pRep; TAM 1 is also named as an expression line); pQe1 plasmids from the King Labs, MIT
T1 sequence (P07320 1-174): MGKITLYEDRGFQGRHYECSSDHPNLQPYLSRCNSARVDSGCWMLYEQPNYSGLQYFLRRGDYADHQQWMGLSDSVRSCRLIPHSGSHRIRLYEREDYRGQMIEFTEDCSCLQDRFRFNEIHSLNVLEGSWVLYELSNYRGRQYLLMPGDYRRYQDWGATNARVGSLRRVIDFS
Assay: Dynamic light scattering of γD-crystallin protein modified with CA(PEG)n
Type: biochemical
From the text: The γD- and γS-crystallin DNA sequences are in pQe1 plasmids that were provided by the King Labs at Massachusetts Institute of Technology (Cambridge, Mass.). γ-crystallin protein sequences contain a 6×N-terminal histidine tag (his tag) for purification purposes. The plasmids were transformed into a cloning competent cell line to create additional plasmid DNA. Plasmids were subsequently transformed into an expression competent cell line for protein synthesis (TAM 1 E. coli cells (Active Motif. Carlsbad, Calif.)).
γ-crystallin plasmid DNA was chemically transformed into M15pRep E. coli cells for protein synthesis. 1 L cultures were grown for protein purification. γ-crystallin protein was purified by Ni affinity chromatography. The N-terminal His tag contained on the γ-crystallin proteins preferentially binds to the Ni column. The bound protein can be eluted with an imidazole gradient which competitively binds to the Ni, releasing the purified protein. The procedure for purification is briefly (as before): protein is loaded on column, and washed first with 20 mM (0% B), then 35 mM (10% B), then 60 mM (20% B) imidazole. Protein is then eluted at 150 mM (57% B) imidazole. Purity was confirmed by SDS PAGE gel electrophoresis and fast protein liquid chromatography (FPLC).
Chemical Modification Protocol: • 1) A batch of purified protein was buffer exchanged into PBS pH=6.8 using a HiTrap™ desalting column. • (2) Concentration (A280) was measured prior to the addition of CA(PEG)n. • (3) 100 mg of CA(PEG)n was added to a 3-5 ml batch of the above protein. • (4) The mixture was placed on a shaker at 4° C. at 250 RPM overnight.
First a solution of unmodified γD-crystallin protein at a concentration of 0.1 mg/mL was studied by DLS. The measured correlation function g2-1 is plotted against the delay time (lag time) is given for the scattering angle of 30° in FIG. 2. The CONTIN analysis of the weight of various relaxation times is given in FIG. 3 for scattering angles ranging from 30° to 60°. It is clear that there are two populations in the solution, one corresponding to aggregates and the other corresponding to unaggregated protein.

[1] = 0.9 mg/mL of protein and 33 mg/ml of CA(PEG)n
[2] = 0.4 mg/mL of protein and 15 mg/ml of CA(PEG)2
[3] = 0.3 mg/mL of protein and 11 mg/ml of CA(PEG)3

SMILES | aggregate population of γD-crystallin by dynamic light scattering [1] | size of the unaggregated protein by dynamic light scattering [1] | other results
NCCOCCC(=O)O [CA(PEG)1] | absent | 2 nm | –
NCCOCCOCCC(=O)O [CA(PEG)2] | – | – | aggregate population of γD-crystallin by dynamic light scattering [2]: absent; size of the unaggregated protein by dynamic light scattering [2]: 2 nm
NCCOCCOCCOCCC(=O)O [CA(PEG)3] | – | – | aggregate population of γD-crystallin by dynamic light scattering [3]: absent; size of the unaggregated protein by dynamic light scattering [3]: 2 nm
NCCOCCOCCOCCOCCC(=O)O [CA(PEG)4] | absent | 2 nm | –

Reference: patent US10736863B2, “Methods of inhibiting cataracts and presbyopia” (UNIVERSITY OF MASSACHUSETTS, priority 2015, dated 2020)
